# Data taken from the supplement of paper PMC3974653.
# Where a name gives a salt, the structure may show the parent alone.
# Test system: MTT (mouse pheochromocytoma)
# Test: IC50 of cell viability (ATP content)
# Settings: (24 or 48 h)
# Method in brief: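 Library compounds in DMSO (23 nl by pintool, 8 concentrations, final 0.5 nM to 46 µM) were applied for 24 or 48 hrs to MTT mouse pheochromocytoma cells that had been cultured overnight at 37°C, 5% CO2 in white 1536-well plates. Cell viability was measured by CellTiter-Glo ATP luminescence, read after 15 minutes, with positive-control wells set at 100% and DMSO wells at 0%. A four-parameter logistic fit of the normalised signals yielded the IC50.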
row,IC50 of cell viability [µM],SMILES
1,> 46,O=C1N=C2SCCN2C(=O)C1Cc1ccc(Cl)cc1 (stereo unspecified) [NUCLOMEDONUM]
2,> 46,C[C@@H](C(=O)O)c1ccc(-c2ccccc2)c(F)c1 [Flurbiprofen]
3,> 46,O=C(Nc1ccc(O)cc1)c1ccccc1O [Osalmid]
4,> 46,COc1cc(O)c(C(=O)c2ccccc2)cc1[S+](=O)([O-])O [Sulisobenzone]
5,> 46,C[C@H](CSC(=O)c1ccccc1)C(=O)N1C[C@@H](Sc2ccccc2)C[C@H]1C(=O)O [ZOFENOPRIL]
6,> 46,CCN(CC)CCSC(=O)C(c1ccccc1)c1ccccc1 [TIFENAMILUM]
7,> 46,N[C@@H](Cc1cc(I)c(Oc2ccc(O)c(I)c2)c(I)c1)C(=O)O [Detrothyronin]
8,> 46,O=C(O)Cc1sc(-c2ccccc2)nc1-c1ccc(Cl)cc1 [Fentiazac]
9,> 46,CC[N+](CC)(CCNC(=O)C(=O)NCC[N+](CC)(CC)Cc1ccccc1Cl)Cc1ccccc1Cl [AMBENONIUM]
10,> 46,Nc1nc(O)c(Br)c(-c2ccccc2)n1 [BROPIRIMINE]
11,> 46,CN(C)C(=O)Nc1ccc(Cl)c(Cl)c1 [DIURON]
12,> 46,Cc1ccccc1N1C(=O)c2cc([S+](N)(=O)[O-])c(Cl)cc2NC1C (stereo unspecified) [Metolazone]
13,> 46,CCOC(=O)COC1=C(Cl)C2=C(C=C1)\C(=C(CCN(CC)CC)/C(=O)O2)C [CLORICROMENUM]
14,> 46,[Na+].CN(C[S]([O-])(=O)=O)\C1=C(/C)N(C)N(C1=O)C2=CC=CC=C2 [Dipyrone]
15,> 46,O=C(Oc1ccccc1C(=O)O)c1ccccc1O [SALSALATE]
16,> 46,Clc1ccc([C@H](Cn2ccnc2)OCc2c(Cl)cccc2Cl)c(Cl)c1 [Isoconazole]
17,> 46,Fc1ccc(C2CCNCC2COc2ccc3c(c2)OCO3)cc1 (stereo unspecified) [Paroxetine]
18,> 46,CC(COc1ccccc1)N(CCCl)Cc1ccccc1 (stereo unspecified) [Fenoxibenzamina]
19,> 46,O=C(O)COCCN1CCN([C@@H](c2ccccc2)c2ccc(Cl)cc2)CC1 [Cetirizine dihydrochloride]
20,> 46,O=C(O)c1ccc(-n2nc(-c3ccccc3O)nc2-c2ccccc2O)cc1 [DEFERASIROX]
21,> 46,Oc1cc2cc(CCN3CCN(c4nsc5ccccc45)CC3)c(Cl)cc2[nH]1 [Zaprasidone]
22,> 46,CC(=O)Nc1ccc(OCCOCCOc2ccc(NC(C)=O)cc2)cc1 [Diamfenetida]
23,> 46,O=C1/C(=C2/Nc3ccc(S(=O)(=O)[O-])cc3C2=O)Nc2ccc(S(=O)(=O)[O-])cc21 [Indigo carmine]
24,> 46,Cc1c(OCC(F)(F)F)ccnc1C[S+]([O-])c1nc2ccccc2[nH]1 (stereo unspecified) [Lansoprazole]

# The next lines start with the compound.
row,SMILES,IC50 of cell viability [µM]
1,CCN(CC)CC(=O)Nc1c(C)cccc1C [LIDOCAINE],> 46
2,"ClCC1CO1 (stereo unspecified) [1,2-Epoxy-3-chloropropane (Epichlorohydrin)]",> 46
3,CC(=O)[C@]1(O)CCC2C3/C=C(Cl)\C4=C\C(=O)C5CC5[C@@]4(C)C3CC[C@@]12C (stereo partly specified) [CYPROTERONE],> 46
4,CC(=O)NC1[C@H](O)C[C@@](O)(C(=O)O)O[C@H]1[C@H](O)[C@H](O)CO (stereo partly specified) [ACIDUM ACENEURAMICUM],> 46
5,C[C@]12CC[C@@H]3c4ccc(O)cc4C[C@@H](CCCCCCCCC[S+]([O-])CCCC(F)(F)C(F)(F)F)C3[C@@H]1CC[C@@H]2O (stereo partly specified) [Fulvestrant],> 46
6,CC1=NN=C2C\N=C(\C3=C(Cl)C=CC=C3)C4=C(C=CC(=C4)Cl)[N]12 [TRIAZOLAM],> 46
7,CC[C@@H](C)C(N)C(=O)O (stereo partly specified) [ISOLEUCINE],> 46
8,"N[C@@H](Cc1ccc(O)c(O)c1)C(=O)O [L-3,4-DIHYDROXYPHENYL-ALANINE]",> 46
9,CC(C)NC[C@H]1CCc2cc(CO)c([N+](=O)[O-])cc2N1 [Oxamniquine],> 46
10,[Na+].C[N]1N=NN=C1SC\C2=C(\[N@]3[C@@H](SC2)[C@H](NC(=O)[C@@H](O)C4=CC=CC=C4)C3=O)C([O-])=O [Cefamandole sodium salt],> 46
11,Br.COc1ccc2c(c1)[C@]13CCCC[C@@H]1[C@H](C2)N(C)CC3.O [Dextromethorphan hydrobromide monohydrate],> 46
12,CC(=O)OC[C@H]1O[C@H]([C@H](OC(C)=O)[C@@H]1OC(C)=O)N2\N=C/C(=O)NC2=O [Azaribine],> 46
13,O[C@H]1\C=C/[C@H]2[C@H]3CC4=C5C(=C(O)C=C4)O[C@@H]1[C@@]25CCN3CC=C [NALORPHINE HYDROCHLORIDE],> 46
14,O=C(O)COc1nc(Cl)c(Cl)cc1Cl [Triclopyr],> 46
15,C1N2CN3CN1CN(C2)C3 [3-0760 Hexamethylenetetramine],> 46
16,O=[N+]([O-])c1nccn1CO[C@@H](CO)[C@H](O)CO [DORANIDAZOLE],> 46
17,COC(=O)[C@@H]1CC2=CC(=O)CC[C@]2(C)[C@@]23O[C@@H]2C[C@@]2(C)[C@@H](CC[C@@]24CCC(=O)O4)[C@H]13 [Eplerenone],> 46
18,C=C1CC[C@H](O)C/C1=C/C=C1\CCC[C@]2(C)[C@@H]([C@H](C)CCCC(C)C)CC[C@@H]12 [CHOLECALCIFEROL],> 46
19,CC(N[NH3+])c1ccccc1 (stereo unspecified) [Mebanazine],> 46
20,Cc1nc(C)c(Cl)c(O)c1Cl [CLOPIDOL],> 46
21,C#C[C@]1(O)CC[C@H]2[C@H]3[C@H](CC[C@@]21C)C1=C(CC(=O)CC1)C[C@@H]3C [TIBOLONE],> 46
22,CSCCC(NC(=O)C(Cc1c[nH]c2ccccc12)NC(=O)CCNC(=O)OC(C)(C)C)C(=O)NC(CC(=O)O)C(=O)NC(Cc1ccccc1)C(N)=O (stereo unspecified) [Pentagastrin],> 46
23,O=C(O)C(Cl)(Cl)Cl [Trichloroacetic acid],> 46
24,CN1[C@@H]2CC[C@@H]1CC(OC1c3ccccc3CCc3ccccc31)C2.O=C(O)CC(O)(CC(=O)O)C(=O)O (stereo partly specified) [Deptropine citrate],> 46

row,SMILES,IC50 of cell viability [µM]
1,O=c1[nH]c(=O)n([C@H]2C[C@H](O)[C@@H](CO)O2)cc1/C=C/Br [(E)-5-(2-Bromovinyl)-2'-deoxyuridine],> 46
2,CC([C@H](O)c1ccccc1)N(C)C (stereo partly drawn) [N-METHYL (-)EPHEDRINE],> 46
3,COc1cc2c(cc1OC)[C@@H](c1ccccc1)CN(C)CC2.O=C(O)/C=C\C(=O)O,> 46
4,CCCCCCCCOC(=O)c1ccccc1C(=O)OCCCCCCCC [Dioctyl phthalate],> 46
5,CNC1(c2ccccc2Cl)CCCCC1=O (stereo unspecified) [ESKETAMINUM],> 46
6,CC(C)CCCC(C)C1CC(=O)C2=C3CCC4CC(O)CCC4(C)C3CCC21C (stereo unspecified) [Colestolone],> 46
7,C=CCN1CCc2nc(N)sc2CC1 [B-HT 920],> 46
8,CC(C)=CCC[C@](C)(O)C1CC\C(=C/C1)C (stereo partly specified) [BISABOLOL],> 46
9,CCCCC(=O)O[C@@]1(CCC2C3CC\C4=C\C(=O)CCC4(C)C3C(O)CC12C)C(=O)CO (stereo partly specified) [HYDROCORTISONE VALERATE],> 46
10,CC(C)(O)C(Cl)(Cl)Cl [CHLOROBUTANOL],> 46
11,CC(=O)O[C@H]1C[C@H](O[C@H]2[C@@H](O)CC(O[C@H]3[C@@H](O)C[C@H](O[C@H]4CC[C@@]5(C)[C@H](CC[C@@H]6[C@@H]5CC[C@]5(C)[C@@H](C7=CC(=O)OC7)CC[C@]65O)C4)O[C@@H]3C)O[C@@H]2C)O[C@H](C)[C@H]1O[C@@H]1O[C@H](CO)[C@@H](O)[C@H](O)[C@H]1O (stereo partly specified) [LANATOSIDE A],> 46
12,CC=1C2=CC3=N/C(=C/C4=C(C(=C(N4)/C=C/5\N=C(/C=C(/C1CCC(=O)O)\N2)C(=C5C)CCC(=O)OC)C=C)C)/C6=CC=C([C@H]([C@]36C)C(=O)OC)C(=O)OC.CC1=C2/C=C/3\N=C(/C=C/4\C(=C(/C(/N4)=C/C5=N/C(=C\C(=C1CCC(=O)OC)N2)/C(=C5C)CCC(=O)O)C=C)C)C6=CC=C([C@H]([C@]36C)C(=O)OC)C(=O)OC [Verteporfin],> 46
13,O=C1CCC(=O)N1CO [N-HYDROXYMETHYLSUCCINIMIDE],> 46
14,CCCCCCCCCCCCCCCCCC(=O)OC[C@@H](O)[C@H]1OC[C@H](O)[C@H]1O [Sorbitan monostearate],> 46
15,CN1CC[C@@]23CCCC[C@@H]2[C@@H]1Cc1ccc(O)cc13 [Dextrorphan tartrate],> 46
16,Cc1ccc(/C=C2/C(=O)C3(C)CCC2C3(C)C)cc1 (stereo unspecified) [ENZACAMENE],> 46
17,Cn1c(=O)c2c(ncn2CC2OCCO2)n(C)c1=O [Doxofylline],> 46
18,COc1cc(C(=O)NC2CCCNC2)cc(OC)c1OC (stereo unspecified) [TROXIPIDE],> 46
19,CN1C(=O)c2ccccc2C1=O [N-Methylphthalimide],> 46
20,CC(C)C(Br)C(=O)NC(N)=O (stereo unspecified) [Bromisovalum],> 46
21,C[C@@]12CC[C@@H]3c4ccc(O[S+](=O)([O-])O)cc4CC[C@H]3[C@H]1CCC2=O [Estropipate],> 46
22,CC(C)(C)C(=O)NCCCC(=O)O [Pivagabine],> 46
23,C=CC(=O)O [CARBOMER 940],> 46
